In patent US7452695B2, “Methods for increasing polypeptide production” (Immunex Corporation, priority 2002, dated 2008):
Several values for one entry are separate records, joined by “and”; a condition that tells them apart may be missing. Equal entries are not always repeated. Where two headings read alike, the source gives them in different places.

Assays:
[1] = test system: CHO cell production line genetically engineered to express TNFR:Fc (cell line #5); experiment: Induction of TNFR:Fc expression, shaker flasks, 5 days at 31° C. (Example 1); assay type: cell-based, Chinese hamster
Description: CHO cells were grown in spinner flasks at 37° C. using serum-free growth medium containing methotrexate. […] The cells, at initial cell densities of 2×10^6 cells/ml in 20 ml, were placed in 125 ml plastic Erlenmeyer flasks with plug seal caps and placed on shaker platforms in incubators set to the appropriate temperatures. Cell viability and number were monitored by haemocytometer counting using trypan blue dye. Recombinant polypeptide titers were assessed by ELISA-based assays. […] A flask containing no inducing compound was also included. The shaker flasks were incubated in this induction phase for 5 days at 31° C. in incubators without carbon dioxide control.

[2] = test system: CHO cells stably transformed with nucleic acids encoding RANK:Fc; experiment: Production of RANK:Fc with HMBA, caffeine and/or butyric acid, shaker flask, 5 days at 31° C. (Example 8); assay type: cell-based, Chinese hamster
Description: Nucleic acids encoding RANK:Fc inserted into a suitable vector (as described in International Application WO 01/36637) were introduced into CHO cells. […] Cells were grown for a total of 5 days in shaker flasks. Thereafter, all medium was harvested. The number of cells present in the culture was determined by staining with trypan blue and counting the cells in a hemocytometer. […] An average number of cells in the culture was calculated by averaging the starting and ending cell numbers. Specific productivity was determined from the total number of micrograms of RANK:Fc produced, an average cell number (calculated as described above), and the number of days of growth. Nucleic acids encoding RANK:Fc inserted into a suitable vector (as described in International Application WO 01/36637) were introduced into CHO cells. […] Cells were grown for a total of 5 days in a shaker flask. Thereafter, all medium was harvested. The number of cells present in the culture, the titer of RANK:Fc per milliliter of harvested medium, and specific productivity were determined as described above in Example 7.

cell line #9 = experiment: Induction effects of xanthine derivatives in cell line #9, shake flasks, 6 days at 31° C. (Example 5); assay type: cell-based, Chinese hamster; conditions: for protein titer compared with the no inducer control culture: concentrations of Table 3 (0.1-1 mM xanthines; 0.5 mM butyrate)
Description: To dissolve 3-isobutyl-1-methylxanthine (IBX), it was solubilized in water heated to almost the boiling point, and quickly added to the flasks before it precipitated. […] The induction phase of the cell culture was carried out for 6 days at 31° C., and samples were removed for analysis at 3 day and 6 day timepoints.

[3] = test system: CHO cells stably transformed with nucleic acids encoding an antibody against a murine IL-4 receptor
[4] = test system: CHO cells stably transformed with nucleic acids encoding RANK:Fc; experiment: Production of RANK:Fc with varying amounts of HMBA, shaker flasks, 5 days at 31° C. (Example 7); assay type: cell-based, Chinese hamster
Description: Nucleic acids encoding RANK:Fc inserted into a suitable vector (as described in International Application WO 01/36637) were introduced into CHO cells. […] Cells were grown for a total of 5 days in shaker flasks. Thereafter, all medium was harvested. The number of cells present in the culture was determined by staining with trypan blue and counting the cells in a hemocytometer. […] An average number of cells in the culture was calculated by averaging the starting and ending cell numbers. Specific productivity was determined from the total number of micrograms of RANK:Fc produced, an average cell number (calculated as described above), and the number of days of growth.

[5] = test system: CHO cells stably transformed with nucleic acids encoding a type II IL-1 receptor; experiment: Production of type II IL-1 receptor with HMBA in a bioreactor (Example 9); assay type: cell-based, Chinese hamster; conditions: 2 mM, added at shift to 31° C. after 2 days at 37° C., 12 more days
Description: About 500 thousand cells from a stably transformed line were inoculated into a one liter of serum-free medium in a bioreactor. Cells were grown for two days at 37° C. Thereafter, cells were shifted to 31° C., either without HMBA or in the presence of 2 mM HMBA, and grown for 12 more days. Thereafter, all medium was harvested. […] Data from this experiment are shown in Table 6 as a percentage of the average of the protein titers obtained from the two samples without HMBA rounded to the nearest whole number.

## Cn1c(=O)c2c(ncn2C)n(C)c1=O [caffeine, 1,3,7-trimethylxanthine]
[1]; 0.5 mM
  rate of production compared with 0.2 mM butyrate culture: slightly higher rates of production
[1]; 2 mM
  rate of productivity per cell compared with no inducing agent: higher
[2]; 1 mM
  Specific productivity (μg/10^6 cells/day): 23.6 μg/10^6 cells/day
  Titer of RANK: Fc: 362 µg/mL

## CCCC(=O)O [Butyric acid, butyric acid]
[2]; 0.5 mM
  Specific productivity (μg/10^6 cells/day): 31.6 μg/10^6 cells/day
  Titer of RANK: Fc: 476 µg/mL

## Cn1cnc2c1c(=O)[nH]c(=O)n2C [theobromine, 3,7-dimethylxanthine]
Cell line #9; 0.1 mM
  Titer (μg/ml) Day 3: 90 µg/mL
  Titer (μg/ml) Day 6: 270 µg/mL
Cell line #9; 0.5 mM
  Titer (μg/ml) Day 3: 100 µg/mL
  Titer (μg/ml) Day 6: 260 µg/mL
Cell line #9; 1 mM
  Titer (μg/ml) Day 3: 100 µg/mL
  Titer (μg/ml) Day 6: 260 µg/mL
Cell line #9
  protein titer compared with the no inducer control culture: did not induce protein titers above that seen in the no inducer control culture

## Cn1c(=O)c2[nH]cnc2n(C)c1=O [aminophylline, theophylline compound with 1,2-ethylenediamine (2:1) dihydrate]
Cell line #9; 0.1 mM
  Titer (μg/ml) Day 3: 110 µg/mL
  Titer (μg/ml) Day 6: 260 µg/mL
Cell line #9; 0.5 mM
  Titer (μg/ml) Day 3: 120 µg/mL
  Titer (μg/ml) Day 6: 250 µg/mL
Cell line #9; 1 mM
  Titer (μg/ml) Day 3: 100 µg/mL
  Titer (μg/ml) Day 6: 200 µg/mL
Cell line #9
  protein titer compared with the no inducer control culture: did not induce protein titers above that seen in the no inducer control culture

## CC(C)Cn1c(=O)n(C)c(=O)c2[nH]cnc21 [IBX, 3-isobutyl-1-methylxanthine]
Cell line #9; 0.5 mM
  Titer (μg/ml) Day 3: 150 µg/mL
  Titer (μg/ml) Day 6: 420 µg/mL
  production compared with caffeine: even better than caffeine

## CCCC(=O)[O-].[Na+] [butyrate, sodium butyrate]
[1]; 0.2 mM
  rate (in μg protein/10^6 cells/day) relative to control cultures: about 1.07 times the rate of control cultures
  total protein (in μg/ml) relative to control culture: about 1.11 times the total protein produc
Cell line #9; 0.5 mM
  Titer (μg/ml) Day 3: 100 µg/mL
  Titer (μg/ml) Day 6: 220 µg/mL
Cell line #9
  protein titer compared with the no inducer control culture: does not induce increased protein titer over that seen in a culture with no inducer
[3]; 0.5 mM
  production of the antibody compared with no inducer: enhanced production of the antibody

## CC(=O)NCCCCCCNC(C)=O [HMBA, hexamethylene bisacetamide]
[4]; 0.1 mM
  Specific productivity (μg/10^6 cells/day): 19.1 μg/10^6 cells/day
  Titer of RANK: Fc: 243 µg/mL
[4]; 0.5 mM
  Specific productivity (μg/10^6 cells/day): 19.5 μg/10^6 cells/day
  Titer of RANK: Fc: 347 µg/mL
[4]; 2.0 mM
  Specific productivity (μg/10^6 cells/day): 23.9 μg/10^6 cells/day
  Titer of RANK: Fc: 444 µg/mL
[2]; 2 mM
  Specific productivity (μg/10^6 cells/day): 22.8 μg/10^6 cells/day
  Titer of RANK: Fc: 410 µg/mL
[5]
  Relative Titer of type II IL-1 Receptor (percent of average of samples without HMBA): 120% and 125%
[3]; 2 mM
  production of the antibody compared with no inducer: enhanced production of the antibody
[3]; 2 mM, 31° C.
  extent of enhancement of antibody production compared with sodium butyrate (0.5 mM): to a greater extent than did sodium butyrate
